# According to PMC10381533, “Inhibitory Effects of the Fungal Pigment Rubiginosin C on Hyphal and Biofilm Formation in Candida albicans and Candida auris” (Journal of Fungi, 2023):
# Where two headings read alike, the source gives them in different places. *1 amine or outer side, *2 acyl side, *3 side chain or, on linkers, in order; H or OH if unused. Where a SMILES comes first, the peptide text is derived from it. [ ]: non-standard residue; d: D form. The star is where a group is joined. X1 = O=C(C[C@H](N[*:1])c1ccc(O)cc1)[*:2]; dVal(3-OH) = CC(C)(O)[C@@H](N)C(=O)O; ΔIle(E) = CC/C(C)=C(/N)C(=O)O; Isovaleryl = CC(C)CC(=O)*; Agmatine = N=C(N)NCCCCN*; NMeA = CN[C@@H](C)C(=O)O; ΔVal = CC(C)=C(N)C(=O)O
# Experiments:
# [1] = test system: preformed S. aureus biofilm; assay: Dispersal effect on preformed S. aureus biofilm; type: cell-based, Staphylococcus aureus
# Description: (§1) compounds (250–2 μg/mL) in CASO with 4% glucose broth. The inhibition of biofilm formation was evaluated by staining with 150 μL of 0.1% crystal violet (CV; Thermo Fisher) following previously established protocols. In the next step, the supernatant of the 96-well plate was discarded and the wells were rinsed once with PBS buffer. The remaining biofilms were stained at room temperature for 15 min, rinsed three times with PBS buffer, and finally dissolved in 150 μL ethanol (95%). The absorbance of the resulting solution at 530 nm was quantified using a plate reader (Synergy 2, BioTek). Methanol (2.5%) and microporenic acid A (MAA) (250–2 μg/mL) were used as negative and positive controls. Standard deviations (SD) of two repeats with duplicates were 10% or less. […]
# (§2) Table S2: Selected azaphilones were tested against the formation of biofilm of S. aureus, P. aeruginosa as well as C. auris and dispersal effect on preformed biofilm of S. aureus compared to solvent control (= 0%), respectively. SDs are shown as ±SD.
# (§3) Compounds Strains Concentrations [µg/mL] […]
# [2] = test system: Staphylococcus aureus (DSM 1104) biofilm; assay: Crystal violet biofilm inhibition assay, S. aureus; type: cell-based
# Description: Selected azaphilones Rub C and W, Rut A and B were tested against the formation of biofilms in Staphylococcus aureus (DSM 1104). S. aureus DSM 1104 from a −20 °C stock was precultured in 25 mL CASO (casein-peptone soymeal-peptone) medium in a 250 mL flask at 37 °C with 100 rpm for 20 h. The OD600 of the culture solution was adjusted to 0.001 McFarland standard and incubated in 96-well microtiter plates (TPP tissue culture ref.no 92196, Switzerland) for 18 h at 37 °C with 150 μL of serially diluted test […]
# as §1
# μg/mL) were used as negative control and positive control, respectively. The assay was conducted for […]
# as §2, §3
# [3] = test system: mouse fibroblasts L929 [ACC 2]; conditions: second value of the cell; cited from earlier work
# [4] = test system: human endocervical adenocarcinoma KB-3-1 [ACC 158] cells; conditions: second value of the cell; cited from earlier work
# [5] = test system: mouse fibroblasts L929 [ACC 2]; assay: MTT cytotoxicity assay, L929; type: cell-based
# Description: (§4) Cytotoxic effects were evaluated on human endocervical adenocarcinoma KB-3-1 [ACC 158] cells and mouse fibroblasts L929 [ACC 2] upon treatment with Rub C, W, and Rut A and B within the concentration range of 37 μg/mL–0.63 ng/mL. The half-maximum inhibitory concentrations (IC50) were determined by standard MTT assays as reported previously (see the Supplementary Material for detailed information). The IC50 values of Rub A and Z have currently been reported. […]
# (§5) KB-3-1 (ACC 158) cervix carcinoma as well as L929 (ACC 2) mouse fibroblasts were cultured under standard cell culture conditions (37 °C, 5% CO2, 95% humidified atmosphere). The cells were maintained in high glucose DMEM containing 10% fetal bovine serum and 100 U/mL penicillin and streptomycin (Gibco, Thermo Fisher Scientific, Waltham, USA). Cell lines were serially passaged after trypsinization, using 0.05% trypsin / 0.02% EDTA solution. The cultures were routinely monitored for potential contamination, and only mycoplasma free cultures were used. The test compounds were investigated for their anti-proliferative effect on cell lines, using the 3-(4,5-dimethylthiazol-2-yl)-2,5-diphenyltetrazolium bromide (MTT) based cell viability assay. Cells were seeded in 96 well microtiter plates (Sarstedt, Germany) with a cell density of 0.05 * 10^6 cells per mL and 100 μL per well and were incubated for 24 h. […]
# (§6) Absorbances at 570 nm and 630 nm were measured with a plate reader (Tecan, Männedorf, canton of Zürich, Switzerland). Background absorbance (630 nm) was subtracted from the formazan signal (570 nm). The resulting absorbance is directly proportional to the amount of viable cells. The control was normalized to 100% viable cells, and the viability of cells treated with the test compounds was calculated accordingly. IC50 values were calculated based on a sigmoidal fit model using GraphPad Prism. Means and SD were calculated from at least four independent experiments. […]
# [6] = test system: human endocervical adenocarcinoma KB-3-1 [ACC 158] cells; assay: MTT cytotoxicity assay, KB-3-1; type: cell-based; conditions: KB 3-1
# Description: as §4, §5, §6
# [7] = test system: Pseudomonas aeruginosa (PA 14) DSM 19882 biofilm; assay: Crystal violet biofilm inhibition assay, P. aeruginosa; type: cell-based; conditions: assay conducted once
# Description: Selected azaphilones Rub C and W, Rut A and B were tested against the formation of biofilms in Pseudomonas aeruginosa (PA 14) DSM 19882. Bacterial strain was precultured in 25 mL LB medium (Luria - Bertani Broth) with a 250 mL flask at 37 °C with shaking 100 rpm overnight. The turbidity of the baterial solution was measured and diluted to match the turbidity of a 0.1 McFarland standard in M63 medium, which is supplemented with magnesium sulfate, glucose and casamino acids as previously described. The compounds were added into 150 μL bacterial solution at the concentration (250–2 μg/mL) then the solution was added in U-bottom 96 well plate (Falcon ref.no 351177, Thermo Fisher Scientific). The plates were incubated at 37 °C at 150 rpm for 24 h and biofilms were established at the air liquid interface. The plates were rinsed once by using PBS buffer, the biofilms were stained by 150 μL 0.1% CV at room temperature for 15 min and then rinsed two times by using PBS buffer. The absorbance was quantified with the plate reader (Synergy 2, BioTek) at 550 nm using ethanol (95%). Methanol (2.5 %) and myxovalargin A (250 –2 μg/mL) were used as negative control and positive control, respectively. The assay was conducted for […]
# as §2, §3
structure (smiles),measurement,setting,value
"CC(C)=CCC/C(C)=C/CC/C(C)=C/CC/C(C)=C/CO[C@@H](C(=O)O)[C@H](CC(=O)O)C(=O)O [MAA, microporenic acid A, reference compound]",dispersal effect on preformed biofilm of S. aureus compared to solvent control (= 0%),[1]; 15.6 µg/mL,33 ±10%
same,dispersal effect on preformed biofilm of S. aureus compared to solvent control (= 0%),[1]; 31.3 µg/mL,54 ±6%
same,dispersal effect on preformed biofilm of S. aureus compared to solvent control (= 0%),[1]; 62.5 µg/mL,60 ±9%
same,dispersal effect on preformed biofilm of S. aureus compared to solvent control (= 0%),[1]; 125 µg/mL,65 ±7%
same,dispersal effect on preformed biofilm of S. aureus compared to solvent control (= 0%),[1]; 250 µg/mL,65 ±4%
same,inhibition of S. aureus biofilm formation compared to solvent control (= 0%),[2]; 2 µg/mL,/ ((/) no activity)
same,inhibition of S. aureus biofilm formation compared to solvent control (= 0%),[2]; 3.9 µg/mL,45 ±10%
same,inhibition of S. aureus biofilm formation compared to solvent control (= 0%),[2]; 7.8 µg/mL,77 ±10%
same,inhibition of S. aureus biofilm formation compared to solvent control (= 0%),[2]; 15.6 µg/mL,83 ±6%
same,inhibition of S. aureus biofilm formation compared to solvent control (= 0%),[2]; 31.3 µg/mL,86 ±4%
same,inhibition of S. aureus biofilm formation compared to solvent control (= 0%),[2]; 62.5 µg/mL,86 ±4%
same,inhibition of S. aureus biofilm formation compared to solvent control (= 0%),[2]; 125 µg/mL,85 ±5%
same,inhibition of S. aureus biofilm formation compared to solvent control (= 0%),[2]; 250 µg/mL,83 ±6%
"C/C(=C\c1csc(C)n1)[C@@H]1C[C@@H]2O[C@]2(C)CCC[C@H](C)[C@H](O)[C@@H](C)C(=O)C(C)(C)[C@@H](O)CC(=O)O1 [Epothilone B, reference compound]",IC50,[3],0.031 nM
same,IC50,[4],0.028 nM
same,IC50,[5],0.17 nM
same,IC50,[6],0.053 nM
"CC/C(C)=C(/NC(=O)[C@H](NC(=O)[C@H](NC(=O)[C@@H](CCCN=C(N)N)NC(=O)C(NC(=O)[C@@H](NC(=O)C[C@H](NC(=O)[C@H](NC(=O)[C@H](NC(=O)[C@H](C)N(C)C(=O)[C@H](C)NC(=O)C(NC(=O)CC(C)C)=C(C)C)C(C)C)C(C)C)c1ccc(O)cc1)C(C)C)=C(C)C)C(C)C)C(C)C)C(=O)N[C@H](C)C(=O)N[C@@H](C(=O)NCCCCN=C(N)N)C(C)(C)O [Myxovalargin A, myxovalargin A, reference compound] (Isovaleryl-[ΔVal]A[NMeA][dV][dV][X1]V[ΔVal][dR][dV][dV][ΔIle(E)][dA][dVal(3-OH)]-Agmatine)",inhibition of P. aeruginosa biofilm formation compared to solvent control (= 0%),[7]; 2 µg/mL,/ ((/) no activity)
same,inhibition of P. aeruginosa biofilm formation compared to solvent control (= 0%),[7]; 3.9 µg/mL,/ ((/) no activity)
same,inhibition of P. aeruginosa biofilm formation compared to solvent control (= 0%),[7]; 7.8 µg/mL,/ ((/) no activity)
same,inhibition of P. aeruginosa biofilm formation compared to solvent control (= 0%),[7]; 15.6 µg/mL,/ ((/) no activity)
same,inhibition of P. aeruginosa biofilm formation compared to solvent control (= 0%),[7]; 31.3 µg/mL,61%
same,inhibition of P. aeruginosa biofilm formation compared to solvent control (= 0%),[7]; 62.5 µg/mL,59%
same,inhibition of P. aeruginosa biofilm formation compared to solvent control (= 0%),[7]; 125 µg/mL,65%
same,inhibition of P. aeruginosa biofilm formation compared to solvent control (= 0%),[7]; 250 µg/mL,55%
